Reference: patent US12077503B2, “Substituted cyclic amides and their use as herbicides” (FMC CORPORATION, priority 2015, dated 2024)

Assays:
Type in all cases: in vivo
[1] = system: barnyardgrass (Echinochloa crus-galli); assay: Test G Post-Emergence Protocol; conditions: Echinochloa crus-galli, post-emergence, 312 h; for pest or weed control at 15.625 g/ha: 15.625 g ai/ha, evaluated after 13 days (100=total damage to plant; 0=no damage to plant), read-out: Barnyardgrass damage rating; for pest or weed control at 62.5 g/ha: 62.5 g ai/ha, read-out: Barnyardgrass damage rating (100=total damage to plant; 0=no damage to plant); for pest or weed control at 62.5 g/ha / pest or weed control at 250 g/ha: evaluated after 13 days; for pest or weed control at 250 g/ha: 250 g ai/ha, read-out: damage to plant, Barnyardgrass (100=total damage to plant; 0=no damage to plant)
Outline: (§1)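 Foliar application was made 8 days after sowing, using an aqueous spray of the active in acetone/water (50:50) with 0.5% Tween 20, at doses of 15.625, 62.5 or 250 g/ha. Injury was assessed 13 days later, where 100 meant the plant was fully damaged.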

[2] = system: ivy-leaved morning glory (Ipomoea hederacea); assay: Test G Post-Emergence Protocol; conditions: Ipomoea, post-emergence, 312 h; for pest or weed control at 15.625 g/ha: 15.625 g ai/ha, evaluated after 13 days (100=total damage to plant; 0=no damage to plant), read-out: Morningglory, Ivy-leaved damage rating; for pest or weed control at 62.5 g/ha: 62.5 g ai/ha, read-out: Morningglory, Ivy-leaved damage rating (100=total damage to plant; 0=no damage to plant); for pest or weed control at 62.5 g/ha / pest or weed control at 250 g/ha: evaluated after 13 days; for pest or weed control at 250 g/ha: 250 g ai/ha, read-out: damage to plant, Morningglory, Ivy-leaved (100=total damage to plant; 0=no damage to plant)
Outline: as §1

corn (Zea mays) [3] = assay: Test G Post-Emergence Protocol; conditions: Zea mays, post-emergence, 312 h; for plant injury at 15.625 g/ha: 15.625 g ai/ha, evaluated after 13 days (100=total damage to plant; 0=no damage to plant), read-out: Corn damage rating; for plant injury at 62.5 g/ha: 62.5 g ai/ha, read-out: Corn damage rating (100=total damage to plant; 0=no damage to plant); for plant injury at 62.5 g/ha / plant injury at 250 g/ha: evaluated after 13 days; for plant injury at 250 g/ha: 250 g ai/ha, read-out: damage to plant, Corn (100=total damage to plant; 0=no damage to plant)
Outline: as §1

[4] = system: velvetleaf (Abutilon theophrasti); assay: Test G Post-Emergence Protocol; conditions: Abutilon theophrasti, post-emergence, 312 h; for pest or weed control at 15.625 g/ha: 15.625 g ai/ha, evaluated after 13 days (100=total damage to plant; 0=no damage to plant), read-out: Velvetleaf damage rating; for pest or weed control at 62.5 g/ha: 62.5 g ai/ha, read-out: Velvetleaf damage rating (100=total damage to plant; 0=no damage to plant); for pest or weed control at 62.5 g/ha / pest or weed control at 250 g/ha: evaluated after 13 days; for pest or weed control at 250 g/ha: 250 g ai/ha, read-out: damage to plant, Velvetleaf (100=total damage to plant; 0=no damage to plant)
Outline: as §1

[5] = system: giant foxtail (Setaria faberi); assay: Test G Post-Emergence Protocol; conditions: Setaria faberi, post-emergence, 312 h; for pest or weed control at 15.625 g/ha: 15.625 g ai/ha, evaluated after 13 days (100=total damage to plant; 0=no damage to plant), read-out: Foxtail, Giant damage rating; for pest or weed control at 62.5 g/ha: 62.5 g ai/ha, read-out: Foxtail, Giant damage rating (100=total damage to plant; 0=no damage to plant); for pest or weed control at 62.5 g/ha / pest or weed control at 250 g/ha: evaluated after 13 days; for pest or weed control at 250 g/ha: 250 g ai/ha, read-out: damage to plant, Foxtail, Giant (100=total damage to plant; 0=no damage to plant)
Outline: as §1

[6] = system: redroot pigweed (Amaranthus retroflexus); assay: Test G Post-Emergence Protocol; conditions: Amaranthus retroflexus, post-emergence, 312 h; for pest or weed control at 15.625 g/ha: 15.625 g ai/ha, evaluated after 13 days (100=total damage to plant; 0=no damage to plant), read-out: Pigweed, Redroot damage rating; for pest or weed control at 62.5 g/ha: 62.5 g ai/ha, read-out: Pigweed, Redroot damage rating (100=total damage to plant; 0=no damage to plant); for pest or weed control at 62.5 g/ha / pest or weed control at 250 g/ha: evaluated after 13 days; for pest or weed control at 250 g/ha: 250 g ai/ha, read-out: damage to plant, Pigweed, Redroot (100=total damage to plant; 0=no damage to plant)
Outline: as §1

[7] = system: barnyardgrass (Echinochloa crus-galli); assay: Test G Pre-Emergence Protocol; conditions: Echinochloa crus-galli, pre-emergence, 312 h, evaluated after 13 days; for pest or weed control at 15.625 g/ha: 15.625 g ai/ha, read-out: Barnyard grass damage rating (100=total damage to plant; 0=no damage to plant); for pest or weed control at 62.5 g/ha: 62.5 g ai/ha, 100=total damage to plant, 0=no damage to plant, read-out: plant damage rating, Barnyardgrass; for pest or weed control at 250 g/ha: 250 g ai/ha, read-out: Barnyardgrass damage rating (100=total damage to plant; 0=no damage to plant)
Outline: (§2)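 Glasshouse pre-emergence test: soil-sown seeds, sprayed after 1 d at 15.625, 62.5 or 250 g/ha. Conditions 24/16° C day/night, 14 h light, 65% humidity, watering twice daily. Rating 13 d post-spray (100 = total damage).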

[8] = system: ivy-leaved morning glory (Ipomoea hederacea); assay: Test G Pre-Emergence Protocol; conditions: Ipomoea, pre-emergence, 312 h, evaluated after 13 days; for pest or weed control at 15.625 g/ha: 15.625 g ai/ha, read-out: Morning-glory, Ivy-leaved damage rating (100=total damage to plant; 0=no damage to plant); for pest or weed control at 62.5 g/ha: 62.5 g ai/ha, 100=total damage to plant, 0=no damage to plant, read-out: plant damage rating, Morningglory, Ivy-leaved; for pest or weed control at 250 g/ha: 250 g ai/ha, read-out: Morningglory, Ivy-leaved damage rating (100=total damage to plant; 0=no damage to plant)
Outline: as §2

corn (Zea mays) [9] = assay: Test G Pre-Emergence Protocol; conditions: Zea mays, pre-emergence, 312 h, evaluated after 13 days; for plant injury at 15.625 g/ha: 15.625 g ai/ha; for plant injury at 15.625 g/ha / plant injury at 250 g/ha: read-out: Corn damage rating (100=total damage to plant; 0=no damage to plant); for plant injury at 62.5 g/ha: 62.5 g ai/ha, 100=total damage to plant, 0=no damage to plant, read-out: plant damage rating, Corn; for plant injury at 250 g/ha: 250 g ai/ha
Outline: as §2

[10] = system: velvetleaf (Abutilon theophrasti); assay: Test G Pre-Emergence Protocol; conditions: Abutilon theophrasti, pre-emergence, 312 h, evaluated after 13 days; for pest or weed control at 15.625 g/ha: 15.625 g ai/ha; for pest or weed control at 15.625 g/ha / pest or weed control at 250 g/ha: read-out: Velvetleaf damage rating (100=total damage to plant; 0=no damage to plant); for pest or weed control at 62.5 g/ha: 62.5 g ai/ha, 100=total damage to plant, 0=no damage to plant, read-out: plant damage rating, Velvetleaf; for pest or weed control at 250 g/ha: 250 g ai/ha
Outline: as §2

[11] = system: giant foxtail (Setaria faberi); assay: Test G Pre-Emergence Protocol; conditions: Setaria faberi, pre-emergence, 312 h, evaluated after 13 days; for pest or weed control at 15.625 g/ha: 15.625 g ai/ha; for pest or weed control at 15.625 g/ha / pest or weed control at 250 g/ha: read-out: Foxtail, Giant damage rating (100=total damage to plant; 0=no damage to plant); for pest or weed control at 62.5 g/ha: 62.5 g ai/ha, 100=total damage to plant, 0=no damage to plant, read-out: plant damage rating, Foxtail, Giant; for pest or weed control at 250 g/ha: 250 g ai/ha
Outline: as §2

[12] = system: redroot pigweed (Amaranthus retroflexus); assay: Test G Pre-Emergence Protocol; conditions: Amaranthus retroflexus, pre-emergence, 312 h, evaluated after 13 days; for pest or weed control at 15.625 g/ha: 15.625 g ai/ha; for pest or weed control at 15.625 g/ha / pest or weed control at 250 g/ha: read-out: Pigweed, Redroot damage rating (100=total damage to plant; 0=no damage to plant); for pest or weed control at 250 g/ha: 250 g ai/ha
Outline: as §2

Structure (SMILES) | pest or weed control at 15.625 g/ha [1] [%] | pest or weed control at 62.5 g/ha [1] [%] | pest or weed control at 250 g/ha [1] [%] | pest or weed control at 15.625 g/ha [2] [%] | pest or weed control at 62.5 g/ha [2] [%] | pest or weed control at 250 g/ha [2] [%] | plant injury at 15.625 g/ha (corn (Zea mays) [3]) [%] | plant injury at 62.5 g/ha (corn (Zea mays) [3]) [%] | plant injury at 250 g/ha (corn (Zea mays) [3]) [%] | pest or weed control at 15.625 g/ha [4] [%] | pest or weed control at 62.5 g/ha [4] [%] | pest or weed control at 250 g/ha [4] [%] | pest or weed control at 15.625 g/ha [5] [%] | pest or weed control at 62.5 g/ha [5] [%] | pest or weed control at 250 g/ha [5] [%] | pest or weed control at 15.625 g/ha [6] [%] | pest or weed control at 62.5 g/ha [6] [%] | pest or weed control at 250 g/ha [6] [%] | pest or weed control at 15.625 g/ha [7] [%] | pest or weed control at 62.5 g/ha [7] [%] | further results
Cc1cccc(NC(=O)[C@H]2C(=O)N(C)C[C@@H]2c2ccc(C(F)(F)F)cc2)n1 (racemic) [Compound 1429] | 0 | 10 | 20 | 0 | 10 | 20 | 10 | 0 | 10 | 0 | 0 | 30 | 0 | 30 | 40 | 0 | 0 | 80 | 0 | 40 | pest or weed control at 250 g/ha [7]: 70%; pest or weed control at 15.625 g/ha [8]: 0%; pest or weed control at 62.5 g/ha [8]: 0%; pest or weed control at 250 g/ha [8]: 0%; plant injury at 15.625 g/ha (corn (Zea mays) [9]): 0%; plant injury at 62.5 g/ha (corn (Zea mays) [9]): 0%; plant injury at 250 g/ha (corn (Zea mays) [9]): 0%; pest or weed control at 15.625 g/ha [10]: 0%; pest or weed control at 62.5 g/ha [10]: 0%; pest or weed control at 250 g/ha [10]: 50%; pest or weed control at 15.625 g/ha [11]: 0%; pest or weed control at 62.5 g/ha [11]: 70%; pest or weed control at 250 g/ha [11]: 80%; pest or weed control at 15.625 g/ha [12]: 0%; pest or weed control at 62.5 g/ha ([12]; 62.5 g ai/ha, 100=total damage to plant, 0=no damage to plant, read-out: plant damage rating, Pigweed, Redroot): 0%; pest or weed control at 250 g/ha [12]: 0%
CN1C[C@H](c2ccc(C(F)(F)F)cc2)[C@@H](C(=O)Nc2ccccc2S(C)(=O)=O)C1=O (racemic) [Compound 1459] | 0 | 10 | 20 | 0 | 0 | 20 | 10 | 10 | 10 | 0 | 0 | 0 | 10 | 60 | 60 | 30 | 40 | 40 | 20 | 60 | pest or weed control at 250 g/ha [7]: 60%; pest or weed control at 15.625 g/ha [8]: 0%; pest or weed control at 62.5 g/ha [8]: 0%; pest or weed control at 250 g/ha [8]: 0%; plant injury at 15.625 g/ha (corn (Zea mays) [9]): 0%; plant injury at 62.5 g/ha (corn (Zea mays) [9]): 0%; plant injury at 250 g/ha (corn (Zea mays) [9]): 0%; pest or weed control at 15.625 g/ha [10]: 0%; pest or weed control at 62.5 g/ha [10]: 0%; pest or weed control at 250 g/ha [10]: 0%; pest or weed control at 15.625 g/ha [11]: 40%; pest or weed control at 62.5 g/ha [11]: 60%; pest or weed control at 250 g/ha [11]: 80%; pest or weed control at 15.625 g/ha [12]: 0%; pest or weed control at 250 g/ha [12]: 60%
